Measured values taken from US20050011012A1, “Multifunctional antimicrobial dyes” (Regents of the University of California, priority 2003, published 2005).
Like-named read-outs stand apart in the source and are kept apart here.

What was measured:
Staphylococcus aureus = conditions: Orlon treated with 1 mMol/L compound, pH 3, 10^5~10^6 CFU/mL, contact time 6 hrs
Experimental: (§1) The dyeing of acrylic fabrics follows a traditional exhaustion dyeing procedure (Munn, The dyeing of synthetic-polymer and acetate fibres, England: Dyers Company Publications Trust (1979)). Dye solutions were prepared with the QAS-dyes of the present invention, sodium sulfate (2 g/L), and Triton X-100 (0.05%). The pH of the dyeing bath was adjusted to 3 by buffer solutions containing sulfuric acid, sodium acetate, and acetic acid. The bath ratio was kept at 1:50. The Orlon fabrics were immersed into the dyeing bath at initial dyeing temperatures for a certain period of time, and then fixed at 100° C. for another period of time to elevate the interactions between the fabrics and the QAS-dyes.
(§2) The antimicrobial activities of the treated Orlon fabrics were evaluated against Escherichia coli (E. coli, Gram-negative) and Staphylococcus aureus (S. aureus, Gram-positive) according to AATCC test method 100-1999. In this method, disposable petri dishes containing fabric swatches weighing about 1 g were challenged with 1.0±0.1 mL of bacteria inoculum. After a certain period of contact time, the challenged fabric swatches were transferred to 250 mL containers with 100 mL of sterilized water, and the resultant supernatant was diluted 10^1, 10^2, 10^3, and 10^4 times. Then, 100 μL of each dilution was placed onto nutrient agar and incubated at 37° C. for 18 hours. The same procedure was applied to an untreated Orlon fabric swatch as a control. Finally, viable bacteria colonies on the agar plate were counted, and the amount of bacterial reduction was calculated using Eq. (2): Reduction percentage(%)=(A-B)/A×100%, (2) where A represents the number of bacterial colonies in the control, and B represents the number of bacterial colonies in the treated Orlon fabrics.
(§3) The surface resistivity of the treated fabrics was measured by a portable surface resistivity/resistance meter purchase from Monroe Electronics, Inc (Model 272A). The visual color yields of the dyed fabrics were measured by GretagMacbeth™ Color-Eye® 7000A spectrophotometer. The visual color yields of the fabrics were expressed by K/S values, which were derived from the reflectance measurement. The treated fabric was washed in a Launder-Ometer® according to AATCC Test Method 61-2001 to evaluate the wash durability of the treated fabrics. In this method, one cycle of a Launder-Ometer wash is equivalent to five machine washes using a home laundry machine.

Escherichia coli = conditions: pH 3; for Antimicrobial efficacy of treated fabric, E. coli: Orlon treated with 1 mMol/L compound, 10^5~10^6 CFU/mL; for Reduction percentage of E. coli: Orlon treated with 1 mMol/L dye
Experimental: as §1, §2, §3

[1] = for Relative hydrolytic stability among mono-QAS substituted dyes: acidic conditions, 100° C.
Experimental: Hydrolytic stability analysis: The dyes were dissolved in aqueous solutions at a concentration of 0.4-1 mMol/L, and the solutions were adjusted to various pH values by using sulfuric acid, acetic acid, sodium acetate, sodium bicarbonate, and/or sodium carbonate. The solutions were heated to the required temperatures. At different time intervals, solution samples were taken and measured by a HITACHI U-2000 spectrophotometer to obtain the UV-vis adsorption spectra. The results were compared with the spectra of original dye solutions to determine the stability of the dyes.
After hydrolysis, the precipitates formed in the dye solutions were filtered and thoroughly washed with deionized water. The resultant precipitates were recrystallized using acetone for NMR analysis. NMR spectra were recorded on a Varian Inova 400 spectrometer. The residual filtrate was extracted by chloroform, and the aqueous part was dried under vacuum at room temperature and analyzed by NMR.

[2] = DSC, 10° C./min, nitrogen
Experimental: Thermal stability analysis: Thermal analyses of the QAS-dyes shown in FIG. 2B were performed using a differential scanning calorimeter (DSC) (Shimadzu DSC-50) and a thermal gravimetric analyzer (TGA) (Shimadzu TGA-50). The dye samples were heated at 10° C./min. and nitrogen gas was chosen as the atmosphere.

| Compound | Antimicrobial efficacy of treated fabric, S. aureus (Staphylococcus aureus; 0 washes) | Antimicrobial efficacy of treated fabric, S. aureus (Staphylococcus aureus; 5 washes) | Antimicrobial efficacy of treated fabric, S. aureus (Staphylococcus aureus; 10 washes) | Antimicrobial efficacy of treated fabric, S. aureus (Staphylococcus aureus; 20 washes) | Antimicrobial efficacy of treated fabric, E. coli (Escherichia coli; 0 washes, contact time 6 hrs) | Antimicrobial efficacy of treated fabric, E. coli (Escherichia coli; 5 washes, contact time 6 hrs) | Antimicrobial efficacy of treated fabric, E. coli (Escherichia coli; 10 washes, contact time 6 hrs) | Antimicrobial efficacy of treated fabric, E. coli (Escherichia coli; 20 washes, contact time 6 hrs) | Temperature up to which no obvious changes are observed (dyes stable below) [2] | Relative hydrolytic stability among mono-QAS substituted dyes [1] | other results |
| --- | --- | --- | --- | --- | --- | --- | --- | --- | --- | --- | --- |
| CCCC[N+](C)(C)CC(=O)Nc1ccc(NC(=O)C[N+](C)(C)CCCC)c2c1C(=O)c1ccccc1C2=O.[Cl-].[Cl-] [bi-4] | 87.5% | 36.4% | 0% | 0% | 97.1% | 37.5% | 0% | 0% | – | – | – |
| CCCCCCCC[N+](C)(C)CC(=O)Nc1ccc(NC(=O)C[N+](C)(C)CCCCCCCC)c2c1C(=O)c1ccccc1C2=O.[Cl-].[Cl-] [bi-8] | 93.9% | 50.0% | 37.5% | 0% | 98.6% | 50.0% | 46.7% | 0% | – | – | – |
| CCCCCCCCCCCC[N+](C)(C)CC(=O)Nc1ccc(NC(=O)C[N+](C)(C)CCCCCCCCCCCC)c2c1C(=O)c1ccccc1C2=O.[Cl-].[Cl-] [bi-12] | 99.9% | 81.8% | 45.5% | 0% | 99.9% | 99.3% | 60.0% | 0% | – | – | Reduction percentage of E. coli (Escherichia coli; E. coli 10^5~10^6 CFU/mL, contact time 3 hrs): 93.3%; Reduction percentage of E. coli (Escherichia coli; E. coli 10^5~10^6 CFU/mL, contact time 6 hrs): 99.9%; Reduction percentage of E. coli (Escherichia coli; E. coli 10^5~10^6 CFU/mL, contact time 9 hrs): 93.3%; Reduction percentage of E. coli (Escherichia coli; E. coli 10^5~10^6 CFU/mL, contact time 12 hrs): 66.7%; Reduction percentage of E. coli (Escherichia coli; E. coli 10^6~10^7 CFU/mL, contact time 3 hrs): 92.5%; Reduction percentage of E. coli (Escherichia coli; E. coli 10^6~10^7 CFU/mL, contact time 6 hrs): 95.8%; Reduction percentage of E. coli (Escherichia coli; E. coli 10^6~10^7 CFU/mL, contact time 9 hrs): 83.3%; Reduction percentage of E. coli (Escherichia coli; E. coli 10^6~10^7 CFU/mL, contact time 12 hrs): 50%; Reduction percentage of E. coli (Escherichia coli; E. coli 10^7~10^8 CFU/mL, contact time 3 hrs): 86.7%; Reduction percentage of E. coli (Escherichia coli; E. coli 10^7~10^8 CFU/mL, contact time 6 hrs): 0%; Reduction percentage of E. coli (Escherichia coli; E. coli 10^7~10^8 CFU/mL, contact time 9 hrs): 0%; Reduction percentage of E. coli (Escherichia coli; E. coli 10^7~10^8 CFU/mL, contact time 12 hrs): 0% |
| CCCC[N+](C)(C)CC(=O)Nc1cccc2c1C(=O)c1ccccc1C2=O.[Cl-] [m-4] | 86.4% | 50.0% | 0% | 0% | 95.7% | 44.0% | 0% | 0% | up to 190 °C | – | Time the dye solution was stable (almost unchanged visible spectra) ([1]; 0.4 mMol/L, pH 5, 100° C.): about six |
| CCCCCCCC[N+](C)(C)CC(=O)Nc1cccc2c1C(=O)c1ccccc1C2=O.[Cl-] [m-8] | 92.4% | 37.5% | 0% | 0% | 98.6% | 44.0% | 0% | 0% | up to 190 °C | lower stability | – |
| CCCCCCCCCCCC[N+](C)(C)CC(=O)Nc1cccc2c1C(=O)c1ccccc1C2=O.[Cl-] [m-12] | 99.9% | 75.0% | 0% | 0% | 99.9% | 81.3% | 0% | 0% | up to 190 °C | lowest stability | – |
